Test systems include OVCAR-8 ovarian; LOX IMVI melanoma; M14 melanoma; SK-MEL-2 melanoma; HOP-92 NSCLC; RXF 393 renal; HS 578T breast; A549 NSCLC; IGROV1 ovarian; MDA-MB-435.
Common to all, as to test: DTP human tumour cell line panel, 48 h

In PubChem BioAssay (NCI) one finds GI50 and TGI data, which are given here for eight compounds.

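Tested at 5 concentrations; 48 h exposure; 96-well plates; endpoints linearly interpolated, else capped at highest concentration. GI50: concentration for 50% inhibition of growth. TGI: concentration producing complete growth inhibition.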 Bounds are passed on as bounds.

As to `c1ccc(-c2nn3c(c2-c2ccnc4cc(OCCN5CCOCC5)ccc24)CCC3)nc1`, the GI50 with OVCAR-8 ovarian is above 82600 nM; with LOX IMVI melanoma, above 45600 nM; in the assay with M14 melanoma, 70800 nM; with SK-MEL-2 melanoma, above 100000 nM; with HOP-92 NSCLC, above 68900 nM; in the assay with RXF 393 renal, above 100000 nM. Besides, the GI50 in the assay with HS 578T breast is above 100000 nM; in the assay with A549 NSCLC, 43800 nM; in the assay on IGROV1 ovarian it was 29600 nM; in the assay with MDA-MB-435, 25800 nM. Also, the TGI with OVCAR-8 ovarian, in the assay on LOX IMVI melanoma, in the assay on M14 melanoma, in the assay on SK-MEL-2 melanoma, with HOP-92 NSCLC and in the assay on RXF 393 renal was above 100000 nM throughout. The TGI in the assay on HS 578T breast, in the assay with A549 NSCLC, with IGROV1 ovarian and in the assay with MDA-MB-435 was above 100000 nM each time.
`COc1ccc(/C=C(/c2ccccc2)[N+](=O)[O-])c(OC)c1`: the GI50 with OVCAR-8 ovarian was 1660 nM; in the assay with LOX IMVI melanoma, 399 nM; in the assay on M14 melanoma, 1480 nM; in the assay on SK-MEL-2 melanoma, 1910 nM; with HOP-92 NSCLC, 1260 nM; with RXF 393 renal, 1530 nM. Also, the GI50 in the assay on HS 578T breast was 2200 nM; with A549 NSCLC, 2320 nM; in the assay with IGROV1 ovarian, 1470 nM; in the assay with MDA-MB-435, 1450 nM. The TGI in the assay with OVCAR-8 ovarian is 5140 nM; in the assay with LOX IMVI melanoma, 1630 nM; in the assay with M14 melanoma it was 3510 nM; with SK-MEL-2 melanoma it was 5280 nM; in the assay with HOP-92 NSCLC, 2760 nM; in the assay with RXF 393 renal, 3030 nM. Further, the TGI in the assay on HS 578T breast is 6650 nM; in the assay on A549 NSCLC it was 6660 nM; in the assay on IGROV1 ovarian, 2950 nM; with MDA-MB-435 it was 2970 nM.
For the compound `O=[N+]([O-])c1cc[n+]([O-])c2ccccc12`, the GI50 was 330 nM in the assay with OVCAR-8 ovarian; 156 nM with LOX IMVI melanoma; 182 nM in the assay on M14 melanoma; 169 nM with SK-MEL-2 melanoma; 130 nM in the assay with HOP-92 NSCLC; 211 nM in the assay on RXF 393 renal. For the same compound, the GI50 in the assay on HS 578T breast is 216 nM; with A549 NSCLC it was 149 nM; in the assay with IGROV1 ovarian, 259 nM; in the assay on MDA-MB-435, 436 nM. Also, the TGI with OVCAR-8 ovarian worked out at 2120 nM; in the assay with LOX IMVI melanoma, 418 nM; with M14 melanoma, 521 nM; in the assay on SK-MEL-2 melanoma it was 377 nM; in the assay on HOP-92 NSCLC, 758 nM; in the assay on RXF 393 renal, 619 nM. Moreover, the TGI in the assay on HS 578T breast is 703 nM; in the assay with A549 NSCLC, 584 nM; in the assay on IGROV1 ovarian it was 1030 nM; with MDA-MB-435 it was 1310 nM.
Turning to `O=C(CCN1CCCC1)Nc1ccc2c(NCc3ccccc3)c3ccccc3nc2c1`, the GI50 with OVCAR-8 ovarian is 452 nM; with LOX IMVI melanoma, 328 nM; in the assay on M14 melanoma, 657 nM; in the assay with SK-MEL-2 melanoma, 598 nM; with HOP-92 NSCLC, 348 nM; with RXF 393 renal it was 349 nM. The GI50 was 612 nM in the assay on HS 578T breast, 352 nM with A549 NSCLC, 383 nM in the assay on IGROV1 ovarian and 481 nM in the assay on MDA-MB-435. Further, the concentration for total growth inhibition (TGI) worked out at 2840 nM in the assay with OVCAR-8 ovarian; 1310 nM with LOX IMVI melanoma; 2030 nM with M14 melanoma; 2080 nM in the assay with SK-MEL-2 melanoma; 2190 nM with HOP-92 NSCLC; 1380 nM in the assay with RXF 393 renal. The TGI in the assay with HS 578T breast was 2750 nM; in the assay on A549 NSCLC it was 1680 nM; in the assay with IGROV1 ovarian, 1670 nM; in the assay with MDA-MB-435, 1690 nM.
On to `NC(=N\N=C/c1ccc(O)cc1)/C(N)=N\N=C/c1ccc(O)cc1`, for which the GI50 in the assay on OVCAR-8 ovarian was 51400 nM; in the assay on LOX IMVI melanoma, 435 nM; in the assay with M14 melanoma, 5560 nM; with SK-MEL-2 melanoma, above 79000 nM; with HOP-92 NSCLC it was 60300 nM; with RXF 393 renal, 84700 nM. The GI50 in the assay on HS 578T breast is above 68900 nM; in the assay with A549 NSCLC, above 25500 nM; in the assay on IGROV1 ovarian it was above 59600 nM; in the assay on MDA-MB-435, 4880 nM. Moreover, the TGI in the assay on OVCAR-8 ovarian, in the assay with LOX IMVI melanoma, with M14 melanoma, in the assay on SK-MEL-2 melanoma, in the assay on HOP-92 NSCLC and in the assay on RXF 393 renal was above 100000 nM throughout. For the same compound, the TGI in the assay on HS 578T breast, in the assay with A549 NSCLC, with IGROV1 ovarian and in the assay with MDA-MB-435 was above 100000 nM each time.
As to `O=C(O)C(Cc1cnc[nH]1)N1C(=O)c2ccccc2C1=O` (stereo not given), the concentration for total growth inhibition (TGI) in the assay on OVCAR-8 ovarian, in the assay on LOX IMVI melanoma, in the assay with M14 melanoma, with SK-MEL-2 melanoma, with HOP-92 NSCLC and in the assay with RXF 393 renal was above 100000 nM each time. Besides, the total growth inhibition concentration (TGI) with HS 578T breast, with A549 NSCLC, in the assay on IGROV1 ovarian and with MDA-MB-435 was above 100000 nM throughout.
With `CSC(=S)Nc1cc(C)cc(C)n1`, the TGI with OVCAR-8 ovarian, in the assay with LOX IMVI melanoma, in the assay on M14 melanoma, in the assay with SK-MEL-2 melanoma, in the assay with HOP-92 NSCLC and with RXF 393 renal was above 31600 nM throughout. The total growth inhibition concentration (TGI) is above 31600 nM in the assay with HS 578T breast, above 31600 nM in the assay on A549 NSCLC, above 100000 nM with IGROV1 ovarian and above 31600 nM in the assay with MDA-MB-435.
Turning to `C=C1C(=O)O[C@H]2[C@H]1CC/C(COC(=O)CCCCCC(=O)OC/C1=C/CC[C@@]3(C)O[C@H]3[C@H]3OC(=O)C(=C)[C@@H]3CC1)=C\CC[C@@]1(C)O[C@@H]21`, the GI50 in the assay on OVCAR-8 ovarian is 2650 nM; in the assay on LOX IMVI melanoma, 1470 nM; with M14 melanoma, 2680 nM; in the assay with SK-MEL-2 melanoma it was 5170 nM; in the assay on HOP-92 NSCLC, 1700 nM; in the assay with RXF 393 renal it was 1100 nM. Also, the GI50 in the assay on HS 578T breast was 2720 nM; in the assay on A549 NSCLC, 10400 nM; in the assay with IGROV1 ovarian, 2510 nM; with MDA-MB-435, 2580 nM. The total growth inhibition concentration (TGI) stood at 9710 nM with OVCAR-8 ovarian; 2880 nM in the assay with LOX IMVI melanoma; 8290 nM with M14 melanoma; 21200 nM with SK-MEL-2 melanoma; 4120 nM in the assay on HOP-92 NSCLC; 2410 nM in the assay with RXF 393 renal. The TGI was found to be 22000 nM in the assay with HS 578T breast, 23800 nM in the assay with A549 NSCLC, 9320 nM with IGROV1 ovarian and 8920 nM in the assay on MDA-MB-435.

One may read the GI50 as the concentration that inhibits growth by half. What is called TGI is the concentration giving total growth inhibition.
